Where two headings read alike, the source gives them in different places.

What all share (experiment): Post-emergence action against weeds, greenhouse pot test, visual scoring
Holding throughout (type): in vivo

The test system of experiment [1] is Cyperus esculentus (CYPES). As to the method: (§1) Seeds or rhizome pieces of mono- and dicotyledonous harmful and useful plants were placed in peat pots (diameter 4 cm) filled with sandy loam and then covered with soil. The pots were kept in a greenhouse under optimum conditions. In addition, harmful plants encountered in paddy rice cultivation were cultivated in pots with a water level 2 cm above the soil surface.
(§2) About three weeks after the start of the cultivation, the test plants were treated at the 2- to 3-leaf stage. The herbicides, formulated as powder or liquid concentrates, were, either alone or in the combinations according to the invention, sprayed in various dosages on to the green parts of the plants using an application rate of 600 l of water/ha (converted). For further cultivation of the plants, the pots were then again kept under optimum conditions in a greenhouse.
(§3) The visual scoring of the herbicidal effects was carried out in intervals up to 21 days after the treatment. Scoring was carried out in percent in comparison to the untreated control plants. 0%=no herbicidal activity, 100%=complete herbicidal activity=complete kill.
(§4) The percentages from the treatments with the herbicides alone (=individual application) and with the combinations according to the invention (=mixtures) were employed to calculate interactions using the method of Colby.
(§5) • A, B=activity of components A and B in percent at a dosage of a and b g of ai/ha (=gramm of active substance per hectare), respectively. • E=expected value in % at a dosage of a+b g of ai/ha.

Experiment [2] deals with Fallopia (ex Polygonum) convolvulus (POLCO). The following applies: Fallopia convolvulus, post-emergence, 504 h, POLCO, 21 DAT, read-out: % activity found. As to the method:
as §1, §2, §3, §4, §5

For experiment [3], the system named is Lolium multiflorum (LOLMU). The following applies: Lolium multiflorum, post-emergence, LOLMU, read-out: % activity found; for inhibition at 60 g/ha: 60 g of ai/ha alone; for inhibition at 12 g/ha: 12 g of ai/ha alone; for inhibition at 70 g/ha: 70 g of ai/ha alone; for inhibition at 750 g/ha: 750 g of ai/ha alone. As to the method: as §1, §2, §3, §4, §5
The test system of experiment [4] is Triticum aestivum (TRZAS). The following applies: Triticum aestivum, post-emergence, read-out: % activity found; for inhibition at 20 g/ha: 20 g of ai/ha alone; for inhibition at 60 g/ha: 60 g of ai/ha alone; for inhibition at 750 g/ha: 750 g of ai/ha alone. As to the method: as §1, §2, §3, §4, §5
The next experiment has as its system Zea mays (ZEAMX). The settings on record: for inhibition at 36 g/ha: 36 g of ai/ha alone. The protocol: as §1, §2, §3, §4, §5
The test system of experiment [5] is Alopecurus myosuroides (ALOMY). The settings on record: read-out: % activity found; for inhibition at 20 g/ha: 20 g of ai/ha alone; for inhibition at 60 g/ha: 60 g of ai/ha alone. As to the method: as §1, §2, §3
(§6) The percentages from the treatments with the herbicides alone (=individual application) and with the combinations according to the invention (=mixtures) were employed to calculate interactions using the method of Colby. When the observed efficacies of the mixtures exceed the formal sum of the values of the tests with individual applications, they also exceed the expected value according to Colby, which is calculated using the formula below (cf. S. R. Colby; in Weeds 15 (1967) pp. 20 to 22):
as §5

The subject of the next experiment is Oryza sativa (ORYSA). The following applies: read-out: % activity found; for inhibition at 210 g/ha: 210 g of ai/ha alone. The protocol:
as §1, §2, §3, §6, §5

In the next experiment the test system is Avena fatua (AVEFA). The settings on record: Avena fatua, post-emergence, 504 h, read-out: % activity found. As to the method: as §1, §2, §3, §4, §5
Experiment [6] has as its system Matricaria inodora (MATIN). The following applies: Tripleurospermum inodorum, post-emergence, 504 h, MATIN, 21 DAT, read-out: % activity found. As to the method: as §1, §2, §3, §4, §5
[7] abbreviates: Cyperus esculentus, post-emergence, 504 h, read-out: % activity found.
Where [8] appears, read: Zea mays, post-emergence, 240 h, read-out: % activity found.

Turning to `CS(=O)(=O)c1cc(C(F)(F)F)ccc1C(=O)c1cnoc1C1CC1` [B3-3, (5-cyclopropyl-4-isoxazolyl)[2-(methylsulfonyl)-4-(trifluoromethyl)phenyl]methanone], the inhibition at 20 g/ha in [1] (Cyperus esculentus, post-emergence, 504 h, CYPES, 21 DAT, 20 g of ai/ha alone, read-out: % activity found) turned out to be 0%; in experiment [2] (20 g of ai/ha alone) it was 0%; in experiment [3] (504 h, 21 DAT, 20 g of ai/ha alone), 0%; in [4] (240 h, 10 DAT), 30%; in experiment [4] (504 h, 21 DAT) it was 20%; in the experiment on Zea mays (ZEAMX) (Zea mays, post-emergence, 504 h, ZEAMX, 21 DAT, 20 g of ai/ha alone, read-out: % activity found), 0%. In addition, the inhibition at 20 g/ha in experiment [5] (240 h, ALOMY, 10 DAT) turned out to be 20%; in [5] (504 h, ALOMY, 21 DAT), 0%; with Oryza sativa (ORYSA) (240 h, ORYSA, 10 DAT, 20 g of ai/ha alone) it was 50%. For the same compound, the inhibition at 60 g/ha in [2] (60 g of ai/ha alone) was 0%; in experiment [3] (240 h, 10 DAT), 30%; in experiment [3] (504 h, 21 DAT), 0%; in [4] (240 h, 10 DAT) it was 50%; in experiment [4] (504 h, 21 DAT), 40%; in the experiment with Zea mays (ZEAMX) (Zea mays, post-emergence, 504 h, ZEAMX, 21 DAT, 60 g of ai/ha alone, read-out: % activity found), 20%. Further, the inhibition at 60 g/ha in [5] (240 h, ALOMY, 10 DAT) was found to be 30%; in experiment [5] (504 h, ALOMY, 21 DAT), 10%.

As for `C#CCOc1cc(-n2nc(C(C)(C)C)oc2=O)c(Cl)cc1Cl` [B5-2, 3-[2,4-dichloro-5-(2-propynyloxy)phenyl]-5-(1,1-dimethylethyl)-1,3,4-oxadiazol-2(3H)-one], the inhibition at 12 g/ha was determined as 20% with Avena fatua (AVEFA) (AVEFA, 21 DAT, 12 g of ai/ha alone); 40% in experiment [3] (240 h, 10 DAT); 30% in experiment [3] (504 h, 21 DAT); 60% in experiment [6] (12 g of ai/ha alone); 20% in experiment [5] (504 h, ALOMY, 21 DAT, 12 g of ai/ha alone). Further, the inhibition at 36 g/ha is 65% in [3] (504 h, 21 DAT, 36 g of ai/ha alone); 60% in [6] (36 g of ai/ha alone); 40% in experiment [4] (240 h, 10 DAT, 36 g of ai/ha alone); 60% in the experiment with Zea mays (ZEAMX) (Zea mays, post-emergence, 240 h, ZEAMX, 10 DAT, read-out: % activity found); 40% in the experiment with Zea mays (ZEAMX) (Zea mays, post-emergence, 504 h, ZEAMX, 21 DAT, read-out: % activity found).

Consider `CC(C)Oc1cc(-n2nc(C(C)(C)C)oc2=O)c(Cl)cc1Cl` [B5-3, 3-[2,4-dichloro-5-(1-methylethoxy)phenyl]-5-(1,1-dimethylethyl)-1,3,4-oxadiazol-2(3H)-one], for which the inhibition at 70 g/ha worked out at 10% in the experiment on Avena fatua (AVEFA) (AVEFA, 21 DAT, 70 g of ai/ha alone); 50% in experiment [3] (240 h, 10 DAT); 40% in experiment [3] (504 h, 21 DAT); 70% in [6] (70 g of ai/ha alone); 40% in experiment [4] (240 h, 10 DAT, 70 g of ai/ha alone); 0% in the experiment with Oryza sativa (ORYSA) (504 h, ORYSA, 21 DAT, 70 g of ai/ha alone). Further, the inhibition at 210 g/ha stood at 30% with Avena fatua (AVEFA) (AVEFA, 21 DAT, 210 g of ai/ha alone); 70% in [6] (210 g of ai/ha alone); 60% with Zea mays (ZEAMX) (Zea mays, post-emergence, 504 h, ZEAMX, 21 DAT, 210 g of ai/ha alone, read-out: % activity found); 40% with Oryza sativa (ORYSA) (240 h, ORYSA, 10 DAT); 0% in the experiment with Oryza sativa (ORYSA) (504 h, ORYSA, 21 DAT).

On to `CC(C)c1nn(C(=O)NC(C)(C)C)c(=O)n1N` [B6-1, 4-amino-N-(1,1-dimethylethyl)-4,5-dihydro-3-(1-methylethyl)-5-oxo-1H-1,2,4-triazole-1-carboxamide], for which the inhibition at 250 g/ha in experiment [1] (setting [7]) came to 0%; in experiment [4] (240 h, 10 DAT, 250 g of ai/ha alone), 10%. The inhibition at 750 g/ha in experiment [1] (setting [7]) turned out to be 0%; in experiment [3] (240 h, 10 DAT) it was 60%; in experiment [3] (504 h, 21 DAT) it was 70%; in experiment [4] (240 h, 10 DAT), 20%; in experiment [4] (504 h, 21 DAT), 70%; in the experiment with Zea mays (ZEAMX) (Zea mays, post-emergence, 504 h, ZEAMX, 21 DAT, 750 g of ai/ha alone, read-out: % activity found) it was 10%. The inhibition at 750 g/ha in [5] (504 h, ALOMY, 21 DAT, 750 g of ai/ha alone) stood at 70%.

Turning to `CCOC(=O)C(Cl)Cc1cc(-n2nc(C)n(C(F)F)c2=O)c(F)cc1Cl` (stereo not drawn) [B6-2, ethyl α,2-dichloro-5-[4-(difluoromethyl)-4,5-dihydro-3-methyl-5-oxo-1H-1,2,4-triazol-1-yl]-4-fluorobenzenepropanoate], the inhibition at 6 g/ha with Avena fatua (AVEFA) is 10%; with Zea mays (ZEAMX) (setting [8]) it was 50%; in [5] (504 h), 0%; in the experiment on Oryza sativa (ORYSA) (240 h) it was 50%. Besides, the “(7) activity found” value was 50% in experiment [1] (CYPES, 21 DAT, rate (6) B6-2 18); 30% in the experiment with Zea mays (ZEAMX) (ZEAMX, 21 DAT, rate (6) B6-2 6); 40% with Zea mays (ZEAMX) (ZEAMX, 21 DAT, rate (6) B6-2 18). In addition, the inhibition at 18 g/ha with Zea mays (ZEAMX) (setting [8]) amounted to 60%; in [5] (504 h), 0%.

Values taken from patent US20100075852A1, “HERBICIDE COMBINATION COMPRISING DIMETHOXYTRIAZINYL-SUBSTITUTED DIFLUOROMETHANESULFONYLANILIDES” (BAYER CROPSCIENCE AG, priority 2008, published 2010).
